Patent US20250235547A1, “ANTIBODY-DRUG CONJUGATE” (UBE Corporation, priority 2022, published 2025)
Numbered stars: 1 amine (or outer) side, 2 acyl side, 3 side chain; on linkers, the order of the positions; unused ones are H or OH. Square brackets hold non-standard residues; d marks the D form. Peptide text beside a SMILES is read from it. * marks the point of attachment. X4 = COC(=O)C1OC(O[C@@H](c2ccccc2)[C@@H](C)N*)C(OC(C)=O)C(OC(C)=O)C1OC(C)=O; Dolaproine = CO[C@@H]([C@@H]1CCCN1)[C@@H](C)C(=O)O; Hexanoyl(6-maleimido) = O=C1C=CC(=O)N1CCCCCC(=O)*; Propanoyl(3-maleimido) = O=C1C=CC(=O)N1CCC(=O)*; Dil = CC[C@H](C)[C@H](NC)[C@@H](CC(=O)O)OC; X3 = C[C@@H](N*)[C@@H](OP(=O)(O)O)c1ccccc1; PABC = O=C(OCc1ccc(N[*:1])cc1)[*:2]; X1 = C[C@@H](N*)[C@@H](O)c1ccccc1; hSer(lactone) = O=C1OCC[C@@H]1N*; Cit = NC(=O)NCCC[C@H](N)C(=O)O; PEG4 = NCCOCCOCCOCCOCCC(=O)O; NMeV = CN[C@H](C(=O)O)C(C)C

Key:
[1] = Retention time in HPLC of reactive precursor (index of hydrophilicity); type: physicochemical; conditions: BEH C18, 0.1% formic acid water/acetonitrile gradient, 40° C.
Experimental: As an index of hydrophilicity of the reactive precursor (Compound (III)), the retention time (RT) in HPLC analysis was measured, and compared.

[2] = target: T1, porcine tubulin (Sus scrofa, UniProt P02550+P02554); test: Tubulin polymerization inhibition test; type: biochemical; conditions: fluorescence, 37° C., 60 minutes
T1 construct: purchased Cytoskeleton, Inc. BK011P
T1 sequence (P02554 whole entry): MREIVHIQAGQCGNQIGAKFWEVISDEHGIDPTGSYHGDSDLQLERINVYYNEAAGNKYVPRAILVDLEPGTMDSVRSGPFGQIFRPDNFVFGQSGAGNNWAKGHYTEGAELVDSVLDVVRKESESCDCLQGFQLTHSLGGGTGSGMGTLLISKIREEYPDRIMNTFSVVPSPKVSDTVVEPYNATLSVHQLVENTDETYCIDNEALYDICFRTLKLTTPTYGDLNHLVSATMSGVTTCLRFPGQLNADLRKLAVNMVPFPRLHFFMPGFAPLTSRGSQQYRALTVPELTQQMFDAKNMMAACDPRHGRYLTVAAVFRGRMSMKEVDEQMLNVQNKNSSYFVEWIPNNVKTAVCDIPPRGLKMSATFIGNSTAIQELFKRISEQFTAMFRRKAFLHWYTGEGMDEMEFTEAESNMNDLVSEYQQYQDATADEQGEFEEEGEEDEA
T1 sequence (P02550 whole entry): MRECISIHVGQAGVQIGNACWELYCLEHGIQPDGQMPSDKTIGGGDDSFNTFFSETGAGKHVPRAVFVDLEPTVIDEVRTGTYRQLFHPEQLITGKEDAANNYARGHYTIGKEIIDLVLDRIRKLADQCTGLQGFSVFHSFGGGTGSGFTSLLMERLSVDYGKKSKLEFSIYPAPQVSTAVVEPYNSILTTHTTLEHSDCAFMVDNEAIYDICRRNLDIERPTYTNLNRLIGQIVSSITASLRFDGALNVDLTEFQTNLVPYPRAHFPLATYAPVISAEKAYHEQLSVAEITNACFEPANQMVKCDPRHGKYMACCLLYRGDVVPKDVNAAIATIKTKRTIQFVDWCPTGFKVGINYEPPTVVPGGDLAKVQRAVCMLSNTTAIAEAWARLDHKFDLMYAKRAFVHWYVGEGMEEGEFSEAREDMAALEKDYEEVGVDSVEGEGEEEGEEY
Experimental: For measuring the tubulin polymerization inhibitory action, Tubulin Polymerization Assay Kit (manufactured by Cytoskeleton, Inc., BK011P) was used. A PIPES buffer containing porcine tubulin, GTP, MgCl2, EGTA, Glycerol, and a fluorescent reporter was prepared under ice-cooling as a reaction solution. The reaction solution was ice-cooled until it was used. A test compound solution was prepared by an aqueous solution containing 1.5% DMSO, and added to a 96 well plate (manufactured by Corning Inc., 3686) at 5 μL/well. The reaction solution was added thereto at 50 μL/well, the plate was placed in a microplate reader (FlexStation 3, manufactured by Molecular Device, LLC) in which the internal temperature was set to 37° C. in advance, and the fluorescence intensity measurement (excitation wavelength: 360 nm, detection wavelength: 420 nm) of each well was started. The fluorescence intensity was measured once every minute, and the measurement was continued for 60 minutes.
The tubulin polymerization inhibition rate (%) was calculated by the following equation.
Amount of fluorescence intensity increase: (average fluorescence intensity after 51 to 60 minutes from measurement start)−(average fluorescence intensity after 1 to 6 minutes from measurement start)

Row | Structure (SMILES) | Retention time in HPLC measurement [1] | IC50 [2]
1 | C=C1C[C@@H]2CC[C@@]34C[C@H]5O[C@H]6[C@@H](O3)[C@H]3O[C@H](CC[C@@H]3O[C@H]6[C@H]5O4)CC(=O)C[C@@H]3[C@@H](OC)[C@@H](C[C@@H](CCNC(=O)OCc4ccc(NC(=O)[C@H](CCCNC(N)=O)NC(=O)[C@@H](NC(=O)[C@H](CC(=O)N[C@H]5CCOC5=O)NC(=O)CCOCCOCCOCCOCCNC(=O)[C@H](CNC(=O)CCP(=O)(O)O)N5C(=O)C=CC5=O)C(C)C)cc4)OP(=O)(O)O)O[C@H]3C[C@H]3O[C@@H](CC[C@@H]1O2)C[C@@H](C)C3=C [Reference Example 26] | 0.91 min | 
2 | CC[C@H](C)[C@@H]([C@@H](CC(=O)N1CCC[C@H]1[C@H](OC)[C@@H](C)C(=O)N[C@H](C)[C@@H](OC1OC(C(=O)OC)C(OC(C)=O)C(OC(C)=O)C1OC(C)=O)c1ccccc1)OC)N(C)C(=O)[C@@H](NC(=O)[C@@H](NC)C(C)C)C(C)C (some centres unmarked) [Example U-014] (H-[NMeV]V[Dil][Dolaproine]-X4) |  | ≤ 3 µM
3 | CC[C@H](C)[C@@H]([C@@H](CC(=O)N1CCC[C@H]1C(OC)[C@@H](C)C(=O)N[C@H](C)[C@@H](O)c1ccccc1)OC)N(C)C(=O)[C@@H](NC(=O)[C@H](C(C)C)N(C)C(=O)OCc1ccc(NC(=O)[C@H](CCCNC(N)=O)NC(=O)[C@@H](NC(=O)[C@H](CC(=O)NC2CCOC2=O)NC(=O)[C@H](CC(=O)N[C@H]2CCOC2=O)NC(=O)[C@H](CC(=O)N[C@H]2CCOC2=O)NC(=O)[C@H](CC(=O)N[C@H]2CCOC2=O)NC(=O)[C@H](CC(=O)NC2CCOC2=O)NC(=O)CCOCCOCCOCCOCCNC(=O)CCN2C(=O)C=CC2=O)C(C)C)cc1)C(C)C (stereo in doubt) [Reference Example 6] | 1.09 min | 
4 | CC[C@H](C)[C@@H]([C@@H](CC(=O)N1CCC[C@H]1[C@H](OC)[C@@H](C)C(=O)N[C@H](C)[C@@H](O)c1ccccc1)OC)N(C)C(=O)[C@@H](NC(=O)[C@H](C(C)C)N(C)Cc1cc([N+](=O)[O-])ccc1F)C(C)C [Example U-008] |  | ≤ 3 µM
5 | CC[C@H](C)[C@@H]([C@@H](CC(=O)N1CCC[C@H]1[C@H](OC)[C@@H](C)C(=O)N[C@H](C)[C@@H](OP(=O)(O)OCc1ccc(NC(=O)[C@H](CCCNC(N)=O)NC(=O)[C@@H](NC(=O)[C@H](CC(=O)N[C@H]2CCOC2=O)NC(=O)CCOCCOCCOCCOCCNC(=O)[C@H](CNC(=O)CCP(=O)(O)O)N2C(=O)C=CC2=O)C(C)C)cc1)c1ccccc1)OC)N(C)C(=O)[C@@H](NC(=O)[C@H](C(C)C)N(C)C)C(C)C [Reference Example 3] | 0.70 min | 
6 | C=C1C[C@@H]2CC[C@@]34C[C@H]5O[C@H]6[C@@H](O3)[C@H]3O[C@H](CC[C@@H]3O[C@H]6[C@H]5O4)CC(=O)C[C@@H]3[C@@H](OC)[C@@H](C[C@H](O)CNC(=O)OCc4ccc(NC(=O)[C@H](CCCNC(N)=O)NC(=O)[C@@H](NC(=O)CCOCCOCCN5C(=O)C=CC5=O)C(C)C)cc4)O[C@H]3C[C@H]3O[C@@H](CC[C@@H]1O2)C[C@@H](C)C3=C [Mal-PEG2-Val-Cit-PAB-Eribulin, reference compound] | 1.19 min | 
7 | CC[C@H](C)[C@@H]([C@@H](CC(=O)N1CCC[C@H]1[C@H](OC)[C@@H](C)C(=O)N[C@H](C)[C@@H](O)c1ccccc1)OC)N(C)C(=O)[C@@H](NC(=O)[C@H](C(C)C)N(C)C(=O)OCc1ccc(NC(=O)[C@H](CCCNC(N)=O)NC(=O)[C@@H](NC(=O)CCCCCN2C(=O)C=CC2=O)C(C)C)cc1)C(C)C [MC-Val-Cit-PAB-MMAE, reference compound] ({Hexanoyl(6-maleimido)}-V[Cit][PABC][NMeV]V[Dil][Dolaproine]-X1) | 1.24 min | 
8 | CC[C@H](C)[C@@H]([C@@H](CC(=O)N1CCC[C@H]1[C@H](OC)[C@@H](C)C(=O)N[C@H](C)[C@@H](OP(=O)(O)O)c1ccccc1)OC)N(C)C(=O)[C@@H](NC(=O)[C@H](C(C)C)N(C)C(=O)OCc1ccc(NC(=O)[C@H](CCCNC(N)=O)NC(=O)[C@@H](NC(=O)[C@H](CC(=O)N[C@H]2CCOC2=O)NC(=O)CCOCCOCCOCCOCCNC(=O)CCN2C(=O)C=CC2=O)C(C)C)cc1)C(C)C [Reference Example 2] ({Propanoyl(3-maleimido)-PEG4}-D(hSer(lactone))V[Cit][PABC][NMeV]V[Dil][Dolaproine]-X3) | 0.96 min | 
